According to the NIST ThermoML archive (doi:10.1016/j.tca.2013.09.006):

Assays:
[1] = mn = molality of the nth substance listed, in mol/kg; settings: 101 kPa, Liquid; for mass density: Vibrating tube method; for speed of sound: vibrating tube:WF =
[2] = 101 kPa, Liquid; for mass density: Vibrating tube method; for speed of sound: vibrating tube

CC1(C)SC2C(NC(=O)C(N)c3ccccc3)C(=O)N2C1C(=O)O (centres undefined) + O
[1]
Settings | mass density, 305.15 K [kg/m3] | mass density, 310.15 K [kg/m3] | mass density, 315.15 K [kg/m3] | speed of sound, 305.15 K [m/s] | speed of sound, 310.15 K [m/s] | speed of sound, 315.15 K [m/s]
m1 = 0.0005 | 995.062 | 993.352 | 991.353 | 1513.7 | 1523.7 | 1532.2
m1 = 0.002 | 995.271 | 993.569 | 991.665 | 1514.8 | 1524.8 | 1533
m1 = 0.004 | 995.458 | 993.755 | 991.87 | 1516 | 1526 | 1534

C[C@H](N)C(=O)N[C@@H](C)C(=O)O [L-alanyl-L-alanine] + O
[1]
Settings | mass density, 305.15 K [kg/m3] | mass density, 310.15 K [kg/m3] | mass density, 315.15 K [kg/m3] | speed of sound, 305.15 K [m/s] | speed of sound, 310.15 K [m/s] | speed of sound, 315.15 K [m/s]
m1 = 0.00215 | 995.223 | 993.535 | 991.641 | 1514.2 | 1524.5 | 1532.9
m1 = 0.00421 | 995.35 | 993.662 | 991.767 | 1514.4 | 1524.8 | 1533
m1 = 0.00596 | 995.458 | 993.769 | 991.873 | 1514.5 | 1524.9 | 1533.1
m1 = 0.00831 | 995.604 | 993.913 | 992.016 | 1514.7 | 1525.1 | 1533.2
m1 = 0.00955 | 995.68 | 993.989 | 992.092 | 1514.9 | 1525.3 | 1533.4
m1 = 0.01169 | 995.812 | 994.12 | 992.222 | 1515 | 1525.5 | 1533.6
m1 = 0.01422 | 995.968 | 994.275 | 992.376 | 1515.2 | 1525.6 | 1533.7
m1 = 0.01594 | 996.074 | 994.38 | 992.48 | 1515.3 | 1525.8 | 1533.9
m1 = 0.01778 | 996.187 | 994.493 | 992.592 | 1515.5 | 1526 | 1534.1
m1 = 0.01983 | 996.314 | 994.618 | 992.716 | 1515.7 | 1526.2 | 1534.2

CC(C)C[C@H](NC(=O)[C@H](C)N)C(=O)O [L-alanyl-L-leucine] + O
[1]
Settings | mass density, 305.15 K [kg/m3] | mass density, 310.15 K [kg/m3] | mass density, 315.15 K [kg/m3] | speed of sound, 305.15 K [m/s] | speed of sound, 310.15 K [m/s] | speed of sound, 315.15 K [m/s]
m1 = 0.00185 | 995.164 | 993.476 | 991.582 | 1514.3 | 1524.7 | 1533.2
m1 = 0.00389 | 995.246 | 993.556 | 991.661 | 1514.4 | 1525 | 1533.4
m1 = 0.00579 | 995.323 | 993.631 | 991.734 | 1514.6 | 1525.2 | 1533.7
m1 = 0.00813 | 995.416 | 993.723 | 991.825 | 1514.7 | 1525.4 | 1533.9
m1 = 0.00966 | 995.478 | 993.783 | 991.884 | 1514.9 | 1525.7 | 1534
m1 = 0.0122 | 995.579 | 993.883 | 991.982 | 1515 | 1525.9 | 1534.3
m1 = 0.01422 | 995.66 | 993.962 | 992.06 | 1515.1 | 1526 | 1534.5
m1 = 0.01589 | 995.727 | 994.027 | 992.124 | 1515.3 | 1526.3 | 1534.7
m1 = 0.01753 | 995.792 | 994.092 | 992.188 | 1515.5 | 1526.6 | 1534.9
m1 = 0.02055 | 995.913 | 994.21 | 992.304 | 1515.6 | 1526.7 | 1535

CC(C)[C@H](NC(=O)[C@H](C)N)C(=O)O [L-alanyl-L-valine] + O
[1]
Settings | mass density, 305.15 K [kg/m3] | mass density, 310.15 K [kg/m3] | mass density, 315.15 K [kg/m3] | speed of sound, 305.15 K [m/s] | speed of sound, 310.15 K [m/s] | speed of sound, 315.15 K [m/s]
m1 = 0.00201 | 995.187 | 993.499 | 991.606 | 1514.3 | 1524.8 | 1533.5
m1 = 0.00414 | 995.289 | 993.601 | 991.707 | 1514.5 | 1525 | 1533.7
m1 = 0.00605 | 995.381 | 993.692 | 991.798 | 1514.6 | 1525.2 | 1534
m1 = 0.00791 | 995.471 | 993.781 | 991.886 | 1514.8 | 1525.5 | 1534.1
m1 = 0.01019 | 995.58 | 993.89 | 991.994 | 1515 | 1525.7 | 1534.3
m1 = 0.01179 | 995.657 | 993.966 | 992.07 | 1515.2 | 1525.9 | 1534.4
m1 = 0.01396 | 995.761 | 994.07 | 992.173 | 1515.4 | 1526.1 | 1534.6
m1 = 0.01551 | 995.835 | 994.143 | 992.246 | 1515.6 | 1526.4 | 1534.8
m1 = 0.01805 | 995.957 | 994.264 | 992.366 | 1515.8 | 1526.7 | 1535
m1 = 0.01971 | 996.037 | 994.343 | 992.445 | 1515.9 | 1526.9 | 1535.2

O [water]
[2]
Settings | mass density [kg/m3] | speed of sound [m/s]
305.15 K | 995.09 | 1513.5
310.15 K | 993.403 | 1523.5
315.15 K | 991.51 | 1532.2
